Data from US20060069132A1, “Azolecarboxamide herbicides” (priority 2004, published 2006).

Tests used:
velvetleaf = assay: Test B pre-/postemergence herbicide test; format: in vivo, Abutilon theophrasti
How it was run: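 Plants compared with untreated controls 13–15 days post-treatment and given a visual 0–100 injury score. Applications: preemergence to seeds; postemergence at 1- to 4-leaf (2–18 cm); paddy species flooded, 2-leaf stage. Vehicle non-phytotoxic, surfactant included.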

bermudagrass = assay: Test C pre-/postemergence herbicide test; format: in vivo, Cynodon dactylon; conditions: for Plant response rating, Bermudagrass: preemergence; for Bermudagrass plant response rating: Preemergence, 500 g ai/ha
How it was run: (§1)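 Visual injury scores run from 0 (no effect) to 100 (complete control), assessed relative to untreated controls 12 to 14 days after treatment in the greenhouse. Chemicals were formulated in a non-phytotoxic solvent mixture with surfactant and applied to soil after planting or to emerged plants at the 1- to 4-leaf stage.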

cocklebur = assay: Test C pre-/postemergence herbicide test; format: in vivo, Xanthium strumarium; conditions: for Plant response rating, Cocklebur: preemergence; for Cocklebur plant response rating: Preemergence, 500 g ai/ha, scale 0 to 100, 0 no effect, 100 complete control
How it was run: as §1

large crabgrass = assay: Test C pre-/postemergence herbicide test; format: in vivo, Digitaria sanguinalis; conditions: for Plant response rating, Crabgrass, Large: preemergence
How it was run: as §1

kochia = assay: Test C pre-/postemergence herbicide test; format: in vivo, Kochia scoparia; conditions: for Plant response rating, Kochia: preemergence
How it was run: as §1

yellow nutsedge = assay: Test C pre-/postemergence herbicide test; format: in vivo, Cyperus esculentus; conditions: for Plant response rating, Nutsedge, Yellow: preemergence
How it was run: as §1

soybean = assay: Test C pre-/postemergence herbicide test; format: in vivo, Glycine max; conditions: for Plant response rating, Soybean: preemergence
How it was run: as §1

ducksalad = assay: Test C flooded paddy test; format: in vivo, Heteranthera limosa; conditions: for Plant response rating, Ducksalad: 500 g ai/ha, visual rating after 12 to 14 days
[1] = 62 g ai/ha, scale 0 to 100, 0 no effect, 100 complete control
[2] = 125 g ai/ha, scale 0 (no effect) to 100 (complete control), visual, 12 to 14 days
[3] = 250 g ai/ha, scale 0 to 100 (0 no effect, 100 complete control), visual, 12 to 14 days
[4] = scale 0 to 100, 0 no effect, 100 complete control
[5] = Preemergence, 500 g ai/ha, scale 0 to 100, 0 no effect, 100 complete control
[6] = 125 g ai/ha, scale 0 to 100 (0 no effect, 100 complete control)
[7] = 250 g ai/ha, scale of 0 to 100, 0 is no effect, 100 is complete control
[8] = scale 0 to 100 (0 no effect, 100 complete control)
[9] = 125 g ai/ha; visual rating, scale 0 (no effect) to 100 (complete control); postemergence
[10] = 500 g ai/ha; visual rating, 0 = no effect, 100 = complete control; preemergence
[11] = postemergence, 500 g ai/ha; scale 0 to 100, 0 is no effect, 100 is complete control
[12] = 500 g ai/ha, scale 0 to 100 (0 no effect, 100 complete control), visual, 12 to 14 days

In the case of `CCn1nc(C(C)(C)C)cc1C(=O)Nc1cccc(C(N)=O)n1` [Compound 162, 6-[[[3-(1,1-dimethylethyl)-1-ethyl-1H-pyrazol-5-yl]carbonyl]amino]-2-pyridinecarboxamide], the “Plant response rating, Velvetleaf” value (velvetleaf; 500 g ai/ha; visual rating 0-100, 0 no effect, 100 complete control; preemergence) is reported as 100, the “Velvetleaf plant response rating” value (velvetleaf; postemergence, 125 g ai/ha; visual rating, scale 0 (no effect) to 100 (complete control)) is reported as 60 and the “Velvetleaf plant response rating” value (velvetleaf; postemergence, 500 g ai/ha; visual rating, scale 0 (no effect) to 100 (complete control)) is reported as 80. For the same compound, the “Plant response rating, Velvetleaf” value (velvetleaf; preemergence, 125 g ai/ha; 0 to 100 scale, 0 is no effect, 100 is complete control) was 90, the “Plant response rating, Bermudagrass” value (bermudagrass; [1]) was 0 and the “Plant response rating, Bermudagrass” value (bermudagrass; [2]) was 0. For the same compound, the “Plant response rating, Bermudagrass” value (bermudagrass; [3]) was 20, the “Bermudagrass plant response rating” value (bermudagrass; [4]) was 40 and the “Plant response rating, Cocklebur” value (cocklebur; [3]) was 65. The “Cocklebur plant response rating” value (cocklebur) was 75, the “Plant response rating, Crabgrass, Large” value (large crabgrass; 62 g ai/ha, scale 0 to 100) was 35 and the “Plant response rating, Crabgrass, Large” value (large crabgrass; [2]) was 40. The “Plant response rating, Crabgrass, Large” value (large crabgrass; [3]) was 80, the “Crabgrass, Large plant response rating” value (large crabgrass; [5]) was 100 and the “Plant response rating, Kochia” value (kochia; 62 g ai/ha, scale 0 to 100) was 65. For the same compound, the “Plant response rating, Kochia” value (kochia; [2]) was 75, the “Kochia plant response rating” value (kochia; [5]) was 100 and the “Plant response rating, Nutsedge, Yellow” value (yellow nutsedge; 62 g ai/ha, scale 0 to 100) was 0. For the same compound, the “Plant response rating, Nutsedge, Yellow” value (yellow nutsedge; [2]) was 20, the “Nutsedge, Yellow plant response rating” value (yellow nutsedge; [5]) was 60 and the “Plant response rating, Soybean” value (soybean; 62 g ai/ha, scale 0 to 100) was 15. The “Plant response rating, Soybean” value (soybean; [2]) was 75, the “Soybean plant response rating” value (soybean; [5]) was 100 and the “Ducksalad plant response rating” value (ducksalad; 62 g ai/ha, scale 0 to 100 (0 no effect, 100 complete control)) was 70. For the same compound, the “Ducksalad plant response rating” value (ducksalad; [6]) was 85, the “Ducksalad plant response rating” value (ducksalad; [7]) was 95 and the “Plant response rating, Ducksalad” value (ducksalad; [8]) was 100.
`CCc1nn(C(C)(C)C)cc1C(=O)Nc1cc(C(=O)N(C)C)ccn1` [Compound 293] was tested, and the “Velvetleaf plant response rating” value (velvetleaf; [9]) was 10, the “Plant response rating, Velvetleaf” value (velvetleaf; [10]) was 100 and the “Velvetleaf plant response rating” value (velvetleaf; [11]) was 30. The “Plant response rating, Bermudagrass” value (bermudagrass; [1]) was 90, the “Plant response rating, Bermudagrass” value (bermudagrass; [2]) was 95 and the “Plant response rating, Bermudagrass” value (bermudagrass; 250 g ai/ha, scale 0-100) was 100. For the same compound, the “Bermudagrass plant response rating” value (bermudagrass; [4]) was 100, the “Plant response rating, Cocklebur” value (cocklebur; 62 g ai/ha, scale 0 to 100) was 0 and the “Plant response rating, Cocklebur” value (cocklebur; 250 g ai/ha, scale 0-100) was 20. The “Cocklebur plant response rating” value (cocklebur) was 60, the “Plant response rating, Crabgrass, Large” value (large crabgrass; 62 g ai/ha, scale 0 to 100) was 95 and the “Plant response rating, Crabgrass, Large” value (large crabgrass; [2]) was 95. The “Plant response rating, Crabgrass, Large” value (large crabgrass; 250 g ai/ha, scale 0-100) was 100, the “Plant response rating, Crabgrass, Large” value (large crabgrass; [12]) was 100 and the “Plant response rating, Kochia” value (kochia; 62 g ai/ha, scale 0 to 100) was 100. The “Plant response rating, Kochia” value (kochia; [2]) was 100, the “Plant response rating, Kochia” value (kochia; 250 g ai/ha, scale 0-100) was 100 and the “Plant response rating, Kochia” value (kochia; [12]) was 100. The “Plant response rating, Nutsedge, Yellow” value (yellow nutsedge; 62 g ai/ha, scale 0 to 100) was 0, the “Plant response rating, Nutsedge, Yellow” value (yellow nutsedge; [2]) was 0 and the “Plant response rating, Nutsedge, Yellow” value (yellow nutsedge; 250 g ai/ha, scale 0-100) was 0. The “Plant response rating, Nutsedge, Yellow” value (yellow nutsedge; [12]) was 20, the “Plant response rating, Soybean” value (soybean; 62 g ai/ha, scale 0 to 100) was 0 and the “Plant response rating, Soybean” value (soybean; 250 g ai/ha, scale 0-100) was 90. For the same compound, the “Plant response rating, Soybean” value (soybean; [12]) was 100, the “Ducksalad plant response rating” value (ducksalad; 62 g ai/ha, scale 0 to 100) was 0 and the “Ducksalad plant response rating” value (ducksalad; [6]) was 65. The “Ducksalad plant response rating” value (ducksalad; [7]) was 80 and the “Plant response rating, Ducksalad” value (ducksalad; [8]) was 95.
For `CCn1nc(C(C)(C)C)cc1C(=O)Nc1cc(C(=S)N(C)C)ccc1F` [Compound 294], the “Velvetleaf plant response rating” value (velvetleaf; [9]) was 40, the “Plant response rating, Velvetleaf” value (velvetleaf; [10]) was 100 and the “Velvetleaf plant response rating” value (velvetleaf; [11]) was 80. For the same compound, the “Plant response rating, Bermudagrass” value (bermudagrass; [1]) was 70, the “Plant response rating, Bermudagrass” value (bermudagrass; [2]) was 80 and the “Plant response rating, Bermudagrass” value (bermudagrass; 250 g ai/ha, scale 0-100) was 90. For the same compound, the “Bermudagrass plant response rating” value (bermudagrass; [4]) was 90, the “Plant response rating, Cocklebur” value (cocklebur; 62 g ai/ha, scale 0 to 100) was 30 and the “Plant response rating, Cocklebur” value (cocklebur; [2]) was 40. For the same compound, the “Plant response rating, Cocklebur” value (cocklebur; 250 g ai/ha, scale 0-100) was 80, the “Cocklebur plant response rating” value (cocklebur) was 85 and the “Plant response rating, Crabgrass, Large” value (large crabgrass; 62 g ai/ha, scale 0 to 100) was 70. For the same compound, the “Plant response rating, Crabgrass, Large” value (large crabgrass; [2]) was 95, the “Plant response rating, Crabgrass, Large” value (large crabgrass; 250 g ai/ha, scale 0-100) was 100 and the “Plant response rating, Crabgrass, Large” value (large crabgrass; [12]) was 100. For the same compound, the “Plant response rating, Kochia” value (kochia; 62 g ai/ha, scale 0 to 100) was 100, the “Plant response rating, Kochia” value (kochia; [2]) was 100 and the “Plant response rating, Kochia” value (kochia; 250 g ai/ha, scale 0-100) was 100. The “Plant response rating, Kochia” value (kochia; [12]) was 100, the “Plant response rating, Nutsedge, Yellow” value (yellow nutsedge; 62 g ai/ha, scale 0 to 100) was 50 and the “Plant response rating, Nutsedge, Yellow” value (yellow nutsedge; [2]) was 55. For the same compound, the “Plant response rating, Nutsedge, Yellow” value (yellow nutsedge; 250 g ai/ha, scale 0-100) was 80, the “Plant response rating, Nutsedge, Yellow” value (yellow nutsedge; [12]) was 90 and the “Plant response rating, Soybean” value (soybean; 62 g ai/ha, scale 0 to 100) was 70. The “Plant response rating, Soybean” value (soybean; 250 g ai/ha, scale 0-100) was 100, the “Plant response rating, Soybean” value (soybean; [12]) was 100 and the “Ducksalad plant response rating” value (ducksalad; 62 g ai/ha, scale 0 to 100) was 90. The “Ducksalad plant response rating” value (ducksalad; [6]) was 95, the “Ducksalad plant response rating” value (ducksalad; [7]) was 95 and the “Plant response rating, Ducksalad” value (ducksalad; [8]) was 95.
